The subject of the assay is MDA-MB-468 cells compared to MCF7 cells. In words: Cy5p53Tet cellular uptake by live cell imaging (confocal, Nikon Element quantification). The conditions noted are these: 500 nM, 2 h incubation; Nikon Element analysis. It is filed as cell-based, Human. The procedure:
Hoechst staining (blue) was used to stain the nuclei. Two independent experiments with biological replicates were performed.
FIG. 1D is a graph showing quantification of Cy5p53Tet uptake in MCF7 and MDA-MB-468 cells via Nikon Element analysis. At least 200 cells per sample were measured by fluorescence microscopy.
In vitro uptake, specificity, and toxicity assays were performed to gauge the potential of mtp53ODPs as imaging agents. Live cell imaging was performed to compare the ability of Cy5p53Tet to stain ER+MCF7 breast cancer cells that express wtp53 and MDA-MB-468 TNBC cells which express stable missense mtp53 R273H. Cy5p53Tet was anticipated to detect both wtp53 and mtp53, but because of the higher stability of mtp53, MDA-MB-468 cells were predicted to have a higher signal. The intensity of the Cy5p53Tet signal was clearly higher in the MDA-MB-468 cells compared to the MCF7 cells (FIG. 1B), a difference that correlated to the level of p53 expression as determined by Western blot (FIG. 1C). […] However, after a 2 h incubation with Cy5p53Tet, the colocalization was clearly evident with the Hoechst-stained DNA (Supplemental Illustration S3 in U.S. Provisional application 63/186,409).
Cy5p53Tet Cellular Uptake by Live Cell Imaging. Cells were seeded at 2×10^5 per well in a 12-well glass bottom plate 1 day before imaging (MatTek). […]

The values below come from US20210353784A1, “DETECTING AND TREATING CANCERS USING CELL PENETRANT MTP53-OLIGOMERIZATION-DOMAIN PEPTIDE” (priority 2020, published 2021).

Turning to “H-CysCy5-RKKRRQRRGEYFTLQIRGRERFEMFRELNEALELK-OH (N-terminal Cy5; Synthetic peptide based on p53 protein) [Cy5p53Tet]”, the “uptake of the mtp53ODP in MDA-MB-468 cells compared to MCF7 cells” value is “twofold higher”.
